# Results taken from patent US20080103159A1, “Composition Comprising Ocaperidone” (priority 2005, published 2008).
# Tests used:
# [1] = Bioavailability studies with conventional oral dosage forms in animals; format: in vivo
# Source text: (§1) One of the objects of the invention is to overcome these drawbacks observed with conventional dosage forms.
# [2] = Bioavailability studies with conventional oral dosage forms in humans; format: in vivo; settings: within a patient and between patients
# Source text: as §1
# [3] = Solubility of ocaperidone in water and buffers of gastro-intestinal fluids; format: physicochemical
# Protocol: Ocaperidone is virtually insoluble in water. Its water solubility is less or equal to 0.007 mg per mL. […] In order to be absorbed uniformly from the gastrointestinal tract after oral administration, the drug must be dissolved and must remain in the solution for absorption. The pH of the gastrointestinal tract varies from pH 1 to 5 in the stomach and pH 4 to 7.5 in the intestine. There is also known significant variation of the intestinal pH on an intra- and inter-individual basis in the general population. This variation is mostly attributed to factors such as gastro-intestinal motility, concomitantly administered food or drug and food habits etc. It is an object of the present invention to provide a therapeutic system for ocaperidone from which, despite its very low solubility in water (0.007 mg/mL), is dispensed/released in the surrounding intestinal environment in a dissolved state. This invention eliminates the effect of surrounding pH on the solubility of ocaperidone. In addition, this improvement in solubility makes this therapeutic system to function appropriately from the bioavailability point of view and overcomes the inter- and intra-individual variability.
compound,measurement,setting,value
Cc1nc2c(C)cccn2c(=O)c1CCN1CCC(c2noc3cc(F)ccc23)CC1 [Ocaperidone],variability of bioavailability,[1],significant high variability
same,variability of bioavailability,[2],significant high variability
same,solubility in the buffers of gastro-intestinal fluids,[3]; buffers of pH 3.0 and above,in the same range as that of water
same,solubility,[3]; water,7 µg/mL
same,water solubility,[3]; water,≤ 0.007 mg per mL
